This note sets out measurements from US7626031B2, “Substituted 3-(diarylmethylene)indolin-2-ones and methods of their use” (Symphony Evolution, Inc., priority 2002, dated 2009).

Each structure is given as a SMILES string.

Test [1] addresses T1, KDR (baculovirus expressed human KDR kinase domain D807-V1356) (Homo sapiens, UniProt P35968).
T1 construct: human KDR kinase domain D807-V1356; host or cells: baculovirus expression system
Kind of test: biochemical. The method in brief:
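Baculovirus human KDR kinase domain (D807–V1356) with ATP near its KM; 10-point dose-response, 4 h at ambient temperature. Activity taken as percent ATP remaining, detected by luciferase–luciferin chemiluminescence.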

A further test deals with c-Kit kinase (Homo sapiens, UniProt P10721). Kind of test: c-Kit AlphaScreen kinase assay. The test is classed as biochemical. The protocol: (§1) Kinase activity and compound inhibition are investigated using one or more assay formats. The ATP concentrations for each assay are selected to be close to the Michaelis-Menten constant (KM) for each individual kinase. Dose-response experiments are performed at 10 different inhibitor concentrations in a 384-well plate format. […] Exemplary kinase assays are described below. KDR Assay
c-Kit biochemical activity was assessed using AlphaScreen™ (Perkin Elmer) technology, described above. Test compounds, ATP, biotinylated poly(Glu, Tyr) and c-Kit kinase were combined in a volume of 20 μL in a 384-well white, medium binding microtiter plate (Greiner). Reaction mixtures were incubated for 1 hr at ambient temperature. Reactions were quenched by addition of 10 uL of […] AlphaScreen bead suspension containing 75 mM Hepes, pH 7.4, 300 mM NaCl, 120 mM EDTA, 0.3% BSA and 0.03% Tween-20. After 16 hr incubation at ambient temperature plates were read using an AlphaQuest reader (Perkin Elmer).
In general terms: Alpha assays give light when donor and acceptor beads are brought close together.

The next test addresses EphA2 (Homo sapiens, UniProt P29317). The experiment in a line: Kinase assay, EphA2 (33P-ATP incorporation or luciferase-coupled ATP consumption). It counts as biochemical. The method in brief: (§2)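 Kinase activity measured either by γ-33P ATP incorporation into immobilized substrate (MBP or pEY) with scintillation counting, or by luciferase-based ATP consumption with pEY. Enzyme 10 or 20 nM; ATP near each kinase's KM (e.g. 10 or 30 μM); 1 h at room temperature, 1% DMSO, 10-point dose-response.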

A further test has as its target EGFR (Homo sapiens, UniProt P00533). The experiment in a line: Kinase assay, EGFR (33P-ATP incorporation or luciferase-coupled ATP consumption). The test is classed as biochemical. The method in brief:
as §2

The next test deals with FGFR1 (Homo sapiens, UniProt P11362). Kind of test: Kinase assay, FGFR1 (33P-ATP incorporation or luciferase-coupled ATP consumption). The test is classed as biochemical. The method in brief:
as §2

The target in a further test is PDGFR alpha (Homo sapiens, UniProt P16234). The experiment in a line: Kinase assay, PDGFR alpha (33P-ATP incorporation or luciferase-coupled ATP consumption). It counts as biochemical. As to conditions: read-out: PDGF-R-A IC50. The method in brief: as §2
The next test concerns the target Fyn (Homo sapiens, UniProt P06241). The experiment in a line: Kinase assay, Fyn. The test is classed as biochemical. The method, then: as §1
A further test deals with IRK (Homo sapiens, UniProt P06213). Kind of test: Kinase assay, IRK. It counts as biochemical. The method, then: as §1
The next test concerns the target Flt-1 (Homo sapiens, UniProt P17948). Kind of test: Kinase assay, Flt-1 (33P-ATP incorporation or luciferase-coupled ATP consumption). The test is classed as biochemical. The conditions noted are these: read-out: Flt1 IC50. The method in brief: as §2

Sequence of EGFR (P00533 25-1210, species assumed): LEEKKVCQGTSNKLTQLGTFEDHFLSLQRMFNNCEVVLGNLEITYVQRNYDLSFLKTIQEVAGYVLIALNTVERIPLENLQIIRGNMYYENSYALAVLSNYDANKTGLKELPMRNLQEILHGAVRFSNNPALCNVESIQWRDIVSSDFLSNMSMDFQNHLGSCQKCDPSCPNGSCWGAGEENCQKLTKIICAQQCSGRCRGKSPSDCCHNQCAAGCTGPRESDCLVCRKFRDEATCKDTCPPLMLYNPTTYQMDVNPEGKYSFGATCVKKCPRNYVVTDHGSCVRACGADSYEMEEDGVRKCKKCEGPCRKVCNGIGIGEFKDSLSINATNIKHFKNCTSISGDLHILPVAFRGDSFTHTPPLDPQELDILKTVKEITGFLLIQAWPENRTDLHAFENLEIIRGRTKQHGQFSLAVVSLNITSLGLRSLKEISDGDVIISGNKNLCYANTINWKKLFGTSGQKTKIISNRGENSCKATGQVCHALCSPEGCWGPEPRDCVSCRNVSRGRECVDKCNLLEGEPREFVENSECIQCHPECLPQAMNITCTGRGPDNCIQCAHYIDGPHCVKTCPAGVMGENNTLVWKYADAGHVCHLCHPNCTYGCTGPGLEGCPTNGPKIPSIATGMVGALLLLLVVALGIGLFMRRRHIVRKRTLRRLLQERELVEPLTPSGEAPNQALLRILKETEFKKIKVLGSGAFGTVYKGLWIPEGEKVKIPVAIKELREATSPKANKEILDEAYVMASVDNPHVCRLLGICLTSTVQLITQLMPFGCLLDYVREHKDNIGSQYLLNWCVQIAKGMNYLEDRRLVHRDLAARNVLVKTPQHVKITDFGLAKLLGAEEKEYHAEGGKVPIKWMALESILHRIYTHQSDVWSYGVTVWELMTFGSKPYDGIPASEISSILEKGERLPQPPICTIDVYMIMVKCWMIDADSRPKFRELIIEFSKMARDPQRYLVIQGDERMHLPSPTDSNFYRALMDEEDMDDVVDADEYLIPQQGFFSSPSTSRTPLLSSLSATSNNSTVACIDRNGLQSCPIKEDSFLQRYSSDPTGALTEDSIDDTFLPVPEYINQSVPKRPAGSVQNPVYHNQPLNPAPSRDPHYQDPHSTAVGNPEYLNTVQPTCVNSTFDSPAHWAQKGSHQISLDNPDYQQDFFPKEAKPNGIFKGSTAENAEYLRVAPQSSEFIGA
Sequence of FGFR1 (P11362 22-822, species assumed): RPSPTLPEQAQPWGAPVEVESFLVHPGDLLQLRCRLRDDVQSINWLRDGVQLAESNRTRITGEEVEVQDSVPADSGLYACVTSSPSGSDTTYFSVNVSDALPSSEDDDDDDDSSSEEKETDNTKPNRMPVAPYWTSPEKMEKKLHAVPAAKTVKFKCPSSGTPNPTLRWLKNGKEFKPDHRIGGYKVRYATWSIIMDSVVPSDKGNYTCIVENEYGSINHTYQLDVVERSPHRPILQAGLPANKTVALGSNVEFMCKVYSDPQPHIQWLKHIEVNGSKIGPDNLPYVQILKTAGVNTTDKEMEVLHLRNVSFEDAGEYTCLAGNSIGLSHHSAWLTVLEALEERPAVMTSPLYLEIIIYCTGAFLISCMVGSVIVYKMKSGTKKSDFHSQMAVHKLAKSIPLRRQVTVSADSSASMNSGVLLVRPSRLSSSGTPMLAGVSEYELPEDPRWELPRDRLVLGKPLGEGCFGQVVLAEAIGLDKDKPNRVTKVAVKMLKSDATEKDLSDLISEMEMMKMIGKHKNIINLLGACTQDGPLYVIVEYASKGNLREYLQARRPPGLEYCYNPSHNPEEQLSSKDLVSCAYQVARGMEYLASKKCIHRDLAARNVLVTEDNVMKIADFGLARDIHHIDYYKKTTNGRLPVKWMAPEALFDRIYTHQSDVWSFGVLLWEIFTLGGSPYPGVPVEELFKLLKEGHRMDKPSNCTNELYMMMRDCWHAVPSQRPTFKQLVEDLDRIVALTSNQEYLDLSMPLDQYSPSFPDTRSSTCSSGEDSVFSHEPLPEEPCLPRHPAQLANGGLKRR
T1 sequence (P35968 807-1356): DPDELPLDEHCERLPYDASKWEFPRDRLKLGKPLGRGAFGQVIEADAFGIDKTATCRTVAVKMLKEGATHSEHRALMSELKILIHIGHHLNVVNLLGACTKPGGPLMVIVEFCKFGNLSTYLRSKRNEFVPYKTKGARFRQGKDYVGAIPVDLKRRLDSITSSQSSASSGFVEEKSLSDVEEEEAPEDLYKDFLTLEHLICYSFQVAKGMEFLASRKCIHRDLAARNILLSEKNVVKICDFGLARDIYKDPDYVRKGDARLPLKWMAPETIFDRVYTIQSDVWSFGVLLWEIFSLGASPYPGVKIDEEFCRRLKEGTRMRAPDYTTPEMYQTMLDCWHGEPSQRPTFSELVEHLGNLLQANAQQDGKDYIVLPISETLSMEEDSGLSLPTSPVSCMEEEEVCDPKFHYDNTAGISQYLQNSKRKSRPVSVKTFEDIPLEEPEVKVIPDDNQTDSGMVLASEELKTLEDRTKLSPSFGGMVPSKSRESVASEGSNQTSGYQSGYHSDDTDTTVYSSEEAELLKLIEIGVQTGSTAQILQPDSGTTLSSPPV
Sequence of IRK (P06213 28-1382): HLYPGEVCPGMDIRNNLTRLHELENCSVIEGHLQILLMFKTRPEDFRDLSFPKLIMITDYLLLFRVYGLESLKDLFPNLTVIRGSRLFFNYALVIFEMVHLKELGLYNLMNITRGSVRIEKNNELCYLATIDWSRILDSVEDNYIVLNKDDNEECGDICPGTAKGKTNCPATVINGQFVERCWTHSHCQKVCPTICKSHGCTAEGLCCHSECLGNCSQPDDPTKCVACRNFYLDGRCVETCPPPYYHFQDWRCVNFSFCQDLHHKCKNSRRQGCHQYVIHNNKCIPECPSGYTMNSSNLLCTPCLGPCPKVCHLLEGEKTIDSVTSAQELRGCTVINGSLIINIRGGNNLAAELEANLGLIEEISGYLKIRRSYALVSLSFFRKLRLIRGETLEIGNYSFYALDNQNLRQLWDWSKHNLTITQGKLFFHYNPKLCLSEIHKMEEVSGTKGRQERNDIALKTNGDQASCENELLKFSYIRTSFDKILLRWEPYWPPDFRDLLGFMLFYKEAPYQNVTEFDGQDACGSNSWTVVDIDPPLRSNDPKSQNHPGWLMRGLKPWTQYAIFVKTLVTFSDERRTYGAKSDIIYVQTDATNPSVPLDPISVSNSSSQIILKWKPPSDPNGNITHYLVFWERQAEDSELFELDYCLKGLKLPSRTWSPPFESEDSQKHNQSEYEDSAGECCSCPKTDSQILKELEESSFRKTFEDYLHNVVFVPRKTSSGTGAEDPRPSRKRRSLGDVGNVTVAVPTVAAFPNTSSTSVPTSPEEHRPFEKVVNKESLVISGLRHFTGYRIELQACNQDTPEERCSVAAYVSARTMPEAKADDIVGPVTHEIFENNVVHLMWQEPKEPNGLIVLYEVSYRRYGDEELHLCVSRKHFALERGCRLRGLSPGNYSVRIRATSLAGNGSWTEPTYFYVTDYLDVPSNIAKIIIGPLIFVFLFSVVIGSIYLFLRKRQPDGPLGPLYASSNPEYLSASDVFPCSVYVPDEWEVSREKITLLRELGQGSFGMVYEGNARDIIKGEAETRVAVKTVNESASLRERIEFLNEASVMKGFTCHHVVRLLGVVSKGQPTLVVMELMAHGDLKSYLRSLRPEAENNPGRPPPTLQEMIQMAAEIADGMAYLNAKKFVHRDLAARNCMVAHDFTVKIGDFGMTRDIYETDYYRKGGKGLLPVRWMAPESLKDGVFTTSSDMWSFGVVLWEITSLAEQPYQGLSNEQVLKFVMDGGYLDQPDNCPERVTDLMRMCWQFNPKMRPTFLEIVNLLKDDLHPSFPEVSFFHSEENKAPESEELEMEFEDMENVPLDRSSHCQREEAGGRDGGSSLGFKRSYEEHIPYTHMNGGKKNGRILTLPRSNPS
Sequence of Fyn (P06241 whole entry, species assumed): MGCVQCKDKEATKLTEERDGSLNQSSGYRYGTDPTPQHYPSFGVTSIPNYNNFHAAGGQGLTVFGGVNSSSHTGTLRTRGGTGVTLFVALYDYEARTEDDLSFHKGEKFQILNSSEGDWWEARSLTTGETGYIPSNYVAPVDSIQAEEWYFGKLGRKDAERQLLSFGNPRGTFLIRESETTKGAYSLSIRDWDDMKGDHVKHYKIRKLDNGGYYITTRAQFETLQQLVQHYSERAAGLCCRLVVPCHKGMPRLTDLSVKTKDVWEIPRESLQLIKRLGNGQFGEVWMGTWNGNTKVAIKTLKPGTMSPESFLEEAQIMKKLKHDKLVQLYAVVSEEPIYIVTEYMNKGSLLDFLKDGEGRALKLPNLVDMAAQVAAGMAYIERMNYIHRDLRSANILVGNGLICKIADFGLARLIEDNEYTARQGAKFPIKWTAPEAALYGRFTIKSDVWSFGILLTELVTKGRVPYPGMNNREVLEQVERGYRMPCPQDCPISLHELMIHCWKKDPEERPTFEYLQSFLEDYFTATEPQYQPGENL

What is called IC50 is the concentration that gives 50% inhibition. On to `CCN1CCC(Nc2ccc3c(c2)/C(=C(/c2ncc[nH]2)c2cccc(F)c2F)C(=O)N3)CC1` [Entry 109, (3Z)-3-[(2,3-difluorophenyl)(1H-imidazol-2-yl)methylidene]-5-[(1-ethylpiperidin-4-yl)amino]-1,3-dihydro-2H-indol-2-one], for which the IC50 in test [1] was less than 50 nM; at c-Kit kinase, less than 50 nM; at EphA2, 500 to 5000 nM; against EGFR it was 50 to 500 nM; against FGFR1, less than 50 nM; at PDGFR alpha, less than 50 nM. The IC50 is less than 50 nM at Fyn and 500 to 5000 nM at IRK.
For the compound `CCN1CCC(Nc2ccc3c(c2)/C(=C(\c2ccc(F)c(Cl)c2)c2nc(C)c[nH]2)C(=O)N3)CC1` [Entry 105, (3Z)-3-[(3-chloro-4-fluorophenyl)(4-methyl-1H-imidazol-2-yl)methylidene]-5-[(1-ethylpiperidin-4-yl)amino]-1,3-dihydro-2H-indol-2-one], the IC50 in test [1] was less than 50 nM; against c-Kit kinase, 50 to 500 nM; against EphA2 it was 500 to 5000 nM; on EGFR, 50 to 500 nM; at FGFR1 it was less than 50 nM; on PDGFR alpha, less than 50 nM. Also, the results for the IC50 against Fyn and on IRK were less than 50 nM and 500 to 5000 nM, respectively.
Take `CCN1CCC(Nc2ccc3c(c2)/C(=C(\c2ccc(C(F)(F)F)cc2)c2ncc[nH]2)C(=O)N3)CC1` [Entry 60, (3Z)-5-[(1-ethylpiperidin-4-yl)amino]-3-{1H-imidazol-2-yl[4-(trifluoromethyl)phenyl]methylidene}-1,3-dihydro-2H-indol-2-one]: the IC50 was less than 50 nM in test [1]; 50 to 500 nM on c-Kit kinase; 500 to 5000 nM against EphA2; 500 to 5000 nM on EGFR; less than 50 nM against FGFR1; less than 50 nM on PDGFR alpha. For the same compound, the IC50 was less than 50 nM against Fyn and more than 5000 nM on IRK.
Take `CCN1CCC(Nc2ccc3c(c2)/C(=C(\c2ccc(F)cc2)c2nc(C)c[nH]2)C(=O)N3)CC1` [Entry 106, (3Z)-5-[(1-ethylpiperidin-4-yl)amino]-3-[(4-fluorophenyl)(4-methyl-1H-imidazol-2-yl)methylidene]-1,3-dihydro-2H-indol-2-one]: the IC50 is less than 50 nM in [1]; 50 to 500 nM on c-Kit kinase; 500 to 5000 nM against EphA2; 50 to 500 nM against EGFR; 50 to 500 nM at FGFR1; less than 50 nM at PDGFR alpha. Moreover, the results for the IC50 against Fyn and at IRK were less than 50 nM and 500 to 5000 nM, respectively.
For `CCN1CCC(Nc2ccc3c(c2)/C(=C(\c2cccc(C(F)(F)F)c2)c2nc(C)c[nH]2)C(=O)N3)CC1` [Entry 115, (3Z)-3-[(3-trifluoromethylphenyl)(4-methyl-1H-imidazol-2-yl)methylidene]-5-[(1-ethylpiperidin-4-yl)amino]-1,3-dihydro-2H-indol-2-one], the IC50 in [1] is less than 50 nM; against c-Kit kinase it was less than 50 nM; against EphA2, 500 to 5000 nM; against EGFR, 500 to 5000 nM; at FGFR1, 50 to 500 nM; on PDGFR alpha, less than 50 nM. Also, the results for the IC50 at Fyn and against IRK were 50 to 500 nM and 500 to 5000 nM, respectively.
For the compound `CCN1CCC(Nc2ccc3c(c2)/C(=C(\c2ccc(F)c(Cl)c2)c2ncc[nH]2)C(=O)N3)CC1` [Entry 53, (3Z)-3-[(3-chloro-4-fluorophenyl) (1H-imidazol-2-yl)methylidene]-5-[(1-ethylpiperidin-4-yl)amino]-1,3-dihydro-2H-indol-2-one], the IC50 was less than 50 nM in test [1]; less than 50 nM against c-Kit kinase; 500 to 5000 nM at EphA2; 500 to 5000 nM against EGFR; less than 50 nM at FGFR1; less than 50 nM at PDGFR alpha. For the same compound, the results for the IC50 at Fyn and on IRK were less than 50 nM and more than 5000 nM, respectively.
For `CCN1CCC(Nc2ccc3c(c2)/C(=C(\c2ccc(C(F)(F)F)c(F)c2)c2nc(C)c[nH]2)C(=O)N3)CC1` [Entry 103, (3Z)-5-[(1-ethylpiperidin-4-yl)amino]-3-[[3-fluoro-4-(trifluoromethyl)phenyl](4-methyl-1H-imidazol-2-yl)methylidene]-1,3-dihydro-2H-indol-2-one], the IC50 in [1] is less than 50 nM; at c-Kit kinase, 50 to 500 nM; against EphA2, 500 to 5000 nM; against EGFR it was less than 50 nM; at FGFR1, less than 50 nM; at Fyn it was less than 50 nM. This compound showed an IC50 against IRK of 500 to 5000 nM.
On to `CCN1CCC(Nc2ccc3c(c2)/C(=C(\c2cc(F)cc(F)c2)c2ncc[nH]2)C(=O)N3)CC1` [Entry 73, (3Z)-3-[(3,5-difluorophenyl)(1H-imidazol-2-yl)methylidene]-5-[(1-ethylpiperidin-4-yl)amino]-1,3-dihydro-2H-indol-2-one], for which the IC50 in test [1] is less than 50 nM; at c-Kit kinase it was 50 to 500 nM; against EphA2, 500 to 5000 nM; at EGFR, 50 to 500 nM; on FGFR1, less than 50 nM; on PDGFR alpha, less than 50 nM. The values for the IC50 on Fyn and against IRK were less than 50 nM and more than 5000 nM, respectively.
Take `COCCN1CCC(Nc2ccc3c(c2)/C(=C(\c2ccccc2)c2nc4ccccc4[nH]2)C(=O)N3)CC1` [Entry 24, (3Z)-3-[1H-benzimidazol-2-yl(phenyl)methylidene]-5-({1-[2-(methyloxy)ethyl]piperidin-4-yl}amino)-1,3-dihydro-2H-indol-2-one]: the IC50 against c-Kit kinase is less than 50 nM; at EphA2, 500 to 5000 nM; against EGFR, 50 to 500 nM; against Fyn, less than 50 nM; at IRK it was 500 to 5000 nM.
Regarding `COCCN1CCC(Oc2ccc3c(c2)/C(=C(\c2cccc(Cl)c2)c2nc4ccccc4[nH]2)C(=O)N3)CC1` [Entry 37, (3Z)-3-[1H-benzimidazol-2-yl(3-chlorophenyl)methylidene]-5-({1-[2-(methyloxy)ethyl]piperidin-4-yl)oxy)-1,3-dihydro-2H-indol-2-one], the IC50 was less than 50 nM in test [1]; 500 to 5000 nM against EphA2; 500 to 5000 nM on Flt-1; 50 to 500 nM at EGFR; 50 to 500 nM against FGFR1; less than 50 nM at PDGFR alpha. In addition, the IC50 at Fyn was less than 50 nM; against IRK, 500 to 5000 nM.
As for `COCCN1CCC(Nc2ccc3c(c2)/C(=C(\c2cccc(F)c2)c2nc4ccccc4[nH]2)C(=O)N3)CC1` [Entry 46, (3Z)-3-[1H-benzimidazol-2-yl(3-fluorophenyl)methylidene]-5-({1-[2-(methyloxy)ethyl]piperidin-4-yl}amino)-1,3-dihydro-2H-indol-2-one], the IC50 is less than 50 nM in test [1]; 500 to 5000 nM on EphA2; 50 to 500 nM on Flt-1; 50 to 500 nM against EGFR; 50 to 500 nM on FGFR1; less than 50 nM on PDGFR alpha. Also, the IC50 at Fyn was less than 50 nM; at IRK, 500 to 5000 nM.
In the case of `COCCN1CCC(Nc2ccc3c(c2)/C(=C(\c2cccc(OC)c2)c2nc4ccccc4[nH]2)C(=O)N3)CC1` [Entry 39, (3Z)-3-{1H-benzimidazol-2-yl[3-(methyloxy)phenyl]methylidene}-5-({1-[2-(methyloxy)ethyl]piperidin-4-yl}amino)-1,3-dihydro-2H-indol-2-one], the IC50 was less than 50 nM in test [1]; 500 to 5000 nM against EphA2; 50 to 500 nM on Flt-1; 500 to 5000 nM on EGFR; less than 50 nM on FGFR1; less than 50 nM at PDGFR alpha. The values for the IC50 on Fyn and against IRK were less than 50 nM and 500 to 5000 nM, respectively.
